Assay results reported in patent US20170107203A1, “HETEROCYCLIC INHIBITORS OF THE SODIUM CHANNEL” (EPIRUS BIOPHARMACEUTICALS, INC., priority 2014, published 2017).

Assays:
human Nav1.7 = target: T1, human Nav1.7 (Homo sapiens, UniProt Q15858); assay: Assessment of Nav1.7 activity on PatchXpress (voltage dependence / slow inactivation parameters); type: cell-based; details: compound at 10 μM, relative to 0.2% DMSO vehicle control; for hNav1.7: Reduction in current at 20 mV (normalized data) Delta Ratio: before/after 30 sec conditioning pulse at 20 mV; for hNav1.7: Shift in voltage dependence of inactivation (mV) Delta Vhalf: PatchXpress
T1 construct: expressed in transfected cells
T1 sequence (Q15858 whole entry): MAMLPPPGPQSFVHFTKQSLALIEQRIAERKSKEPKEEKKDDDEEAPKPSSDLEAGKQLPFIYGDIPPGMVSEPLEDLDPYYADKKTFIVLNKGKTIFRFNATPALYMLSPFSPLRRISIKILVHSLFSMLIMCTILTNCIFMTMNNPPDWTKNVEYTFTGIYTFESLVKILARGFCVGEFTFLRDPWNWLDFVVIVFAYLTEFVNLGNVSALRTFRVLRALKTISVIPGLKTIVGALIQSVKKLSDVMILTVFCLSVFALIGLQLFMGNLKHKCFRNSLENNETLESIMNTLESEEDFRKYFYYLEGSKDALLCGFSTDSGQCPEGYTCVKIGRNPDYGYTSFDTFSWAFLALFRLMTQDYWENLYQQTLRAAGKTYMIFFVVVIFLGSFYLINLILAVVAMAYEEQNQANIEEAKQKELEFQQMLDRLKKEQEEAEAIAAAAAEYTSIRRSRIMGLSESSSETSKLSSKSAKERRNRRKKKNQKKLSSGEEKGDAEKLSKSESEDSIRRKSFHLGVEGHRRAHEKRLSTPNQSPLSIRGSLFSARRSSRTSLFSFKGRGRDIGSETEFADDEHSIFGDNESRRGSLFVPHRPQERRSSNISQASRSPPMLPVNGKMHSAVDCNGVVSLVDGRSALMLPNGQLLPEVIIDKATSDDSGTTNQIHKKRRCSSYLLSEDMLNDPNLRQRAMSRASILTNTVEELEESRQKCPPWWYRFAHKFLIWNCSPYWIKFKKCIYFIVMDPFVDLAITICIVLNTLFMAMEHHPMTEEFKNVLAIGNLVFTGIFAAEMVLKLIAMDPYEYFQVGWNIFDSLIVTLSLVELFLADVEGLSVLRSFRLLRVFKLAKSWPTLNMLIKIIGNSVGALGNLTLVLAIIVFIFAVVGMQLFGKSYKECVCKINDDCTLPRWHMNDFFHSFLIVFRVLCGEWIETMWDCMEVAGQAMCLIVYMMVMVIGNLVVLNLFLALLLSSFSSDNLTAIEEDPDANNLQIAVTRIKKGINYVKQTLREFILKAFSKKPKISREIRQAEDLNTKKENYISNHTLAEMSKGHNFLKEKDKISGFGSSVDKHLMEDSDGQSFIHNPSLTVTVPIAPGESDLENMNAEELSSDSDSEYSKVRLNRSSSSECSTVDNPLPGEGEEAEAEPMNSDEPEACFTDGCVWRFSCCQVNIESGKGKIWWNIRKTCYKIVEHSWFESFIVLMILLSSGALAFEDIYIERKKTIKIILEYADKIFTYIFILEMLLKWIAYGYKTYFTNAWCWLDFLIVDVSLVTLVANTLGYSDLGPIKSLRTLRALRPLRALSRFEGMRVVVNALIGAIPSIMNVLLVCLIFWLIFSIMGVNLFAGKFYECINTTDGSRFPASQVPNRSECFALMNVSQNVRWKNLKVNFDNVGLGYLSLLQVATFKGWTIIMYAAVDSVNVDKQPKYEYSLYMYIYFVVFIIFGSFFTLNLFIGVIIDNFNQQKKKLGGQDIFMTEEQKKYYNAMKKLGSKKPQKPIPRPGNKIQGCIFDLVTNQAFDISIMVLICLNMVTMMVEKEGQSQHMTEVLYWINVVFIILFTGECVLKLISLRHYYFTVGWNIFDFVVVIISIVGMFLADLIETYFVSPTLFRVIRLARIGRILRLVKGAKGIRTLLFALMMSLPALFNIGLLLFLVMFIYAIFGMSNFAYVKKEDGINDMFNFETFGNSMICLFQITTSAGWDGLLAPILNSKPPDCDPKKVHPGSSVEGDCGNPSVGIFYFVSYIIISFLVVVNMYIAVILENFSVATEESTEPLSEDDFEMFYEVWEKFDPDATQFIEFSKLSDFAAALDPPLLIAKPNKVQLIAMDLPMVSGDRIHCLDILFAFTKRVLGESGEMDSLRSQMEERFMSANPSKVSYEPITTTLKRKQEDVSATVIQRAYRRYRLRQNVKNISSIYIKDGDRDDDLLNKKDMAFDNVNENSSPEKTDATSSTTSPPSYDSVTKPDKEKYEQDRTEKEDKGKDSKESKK
T1 sequence (Q07699 19-218 partner): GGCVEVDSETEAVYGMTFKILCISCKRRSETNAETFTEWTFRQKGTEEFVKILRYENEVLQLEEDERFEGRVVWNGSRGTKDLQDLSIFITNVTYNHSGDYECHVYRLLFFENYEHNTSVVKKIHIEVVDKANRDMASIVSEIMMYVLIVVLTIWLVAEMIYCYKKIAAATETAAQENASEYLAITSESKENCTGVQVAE
Procedure, shortened: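 HEK293F cells stably co-expressing hNav1.7 and β1 were recorded by automated patch clamp in TEA-based external solution (50 mM NaCl, pH 7.4) with CsF internal solution (pH 7.2). A variable conditioning prepulse inactivated channels, followed by a brief hyperpolarizing step and a depolarizing test pulse. Compounds at 10 μM were compared with 0.2% DMSO vehicle across four parameters.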

hNav1.7 [1] = target: T2, hNav1.7 (Homo sapiens, UniProt Q15858); assay: Nav1.7 potency, Patchliner automated patch clamp; type: cell-based; details: automated patchclamp
T2 construct: expressed in transfected cells
T2 sequence (Q15858 whole entry): as the sequence (Q15858 whole entry) above
T2 sequence (Q07699 19-218 partner): as the sequence (Q07699 19-218 partner) above
Protocol: (§1) The generation of a HEK 293F cell line stably expressing human Nav1.7/Navp1 was achieved by co-transfecting human SCN9A and human SCN1B cDNAs, subcloned into plasmid vectors, utilizing standard transfection techniques. Clones were selected using appropriate selection agents (0.3 mg/mL Zeocin and 0.8 mg/mL Geneticin) and maintained in Dulbecco's Modified Eagle medium, 10% fetal bovine serum, 1% non-essential amino acids to ˜80% confluence at 37° C. in a humidified incubator with 95% atmosphere and 5% CO2.
(§2) In some cases, the potency of compounds was measured using either the Patchliner automated patch clamp platform (Nanion) or manual patch clamp techniques. Both approaches allowed the compounds to be characterized based upon the ability of a compound to modulate use- and/or state-dependence. The potency data is tabulated in Table 3 and is represented by eight data fields. The first four fields represent potency data measured with the Patchliner automated platform under varying use- and state-dependent electrophysiology protocols similar to the Patch express protocols detailed above. The first data column describes the potency of compounds when the Nav1.7 channel is being repetitively activated at a 7 Hz hyperpolarization frequency (Table 3: hNav1.7: IC50 of inward current block at 7 Hz, Automated patchclamp). The second data column represents the potency at which 50% of the initial hyperpolarization pulse is inhibited by the compounds (Table 3: hNav1.7: IC50 of P1 block, Automated patchclamp). The third data column details the potency of compounds in their ability to block 50% of Nav1.7 channels when these channels are induced into the slow inactivated state (Table 3: hNav1.7: IC50 of slow inactivation block, Automated patchclamp). […] The next three data fields describe the data generated from manual patchclamp electrophysiology measurements using similar methods to those employed for automated patchclamp studies. […] The last column characterizes the state-dependence of compound inhibition. Compounds that maintain the greatest potency for the slow inactivated state over fast inactivated or tonic inhibition at 0.25 Hz are characterized as “state dependent, blocker of slow inactivation”.

hNav1.7 [2] = target: T2, hNav1.7; assay: Nav1.7 potency, manual patch clamp; type: cell-based; details: manual patchclamp
Protocol: as §1, §2

male Sprague-Dawley rat = assay: Formalin test in rats (automated flinch detection); type: in vivo; details: 100 mg/kg SC 1 hour prior to formalin
Protocol: The formalin test in rats was performed as previously described (McNamara, 2007. Proc. Natl. Acad. Sci., vol 104, page 13525) using an automated flinch-detecting system (T. Yaksh, University of California at San Diego, La Jolla, Calif.). On the day of testing, a small metal band (0.5 g) was loosely placed around the right hind paw of a male Sprague-Dawley rat (average weight, ˜250 g). The rats were allowed to acclimate to a Plexiglas chamber for at least 30 min before testing. Formalin was then injected (50 μl of 2.5% formalin, diluted in saline) into the dorsal surface of the right hind paw of the rat, and the animal was put into a chamber of the automated formalin apparatus where movement of the formalin-injected paw was recorded. The number of paw flinches per minute was tallied for the next 60 minutes. The time interval phases were defined as follows: Phase I (0-9 mins), Phase II (10-60 mins), Phase IIA (10-40 mins), and Phase IIB (41-60 mins). The following compounds were administered 1 hour prior to formalin administration. Compound 52 from Table 1 was administered by oral gavage in 4% DMSO, 10% Solutol, 86% H2O. Gabapentin was administered subcutaneously in 0.9% NaCl (aq).

[3] = 7 Hz, read-out: Nav1.7 IC50 INWARD CURRENT BLOCK (nM) (7 Hz, Automated Patchclamp)
[4] = initial pulse (P1), read-out: Nav1.7 IC50 P1 BLOCK (nM) (Automated Patchclamp)
[5] = slow inactivated state, read-out: Nav1.7 IC50 SLOW INACTIVATION BLOCK (nM) (Automated Patchclamp)
[6] = slow inactivated state, read-out: Nav1.7 IC50 SLOW INACTIVATION BLOCK (nM) (Manual Patchclamp)

Structure (SMILES) | hNav1.7: Reduction in current at 20 mV (normalized data) Delta Ratio (human Nav1.7) | hNav1.7: Voltage dependence of activation (mV) VDEP (human Nav1.7) [mV] | hNav1.7: Voltage dependence of fast inactivation (mV) VDEP (human Nav1.7) [mV] | hNav1.7: Shift in voltage dependence of inactivation (mV) Delta Vhalf (human Nav1.7) [mV] | IC50 (hNav1.7 [1]; [3]) [nM] | IC50 (hNav1.7 [1]; [4]) [nM] | IC50 (hNav1.7 [1]; [5]) [nM] | IC50 (hNav1.7 [2]; [6]) [nM] | IC50 (hNav1.7 [1]; 0.25 Hz, read-out: Nav1.7 IC50 INWARD CURRENT BLOCK (nM) (0.25 Hz, Automated Patchclamp)) | IC50 (hNav1.7 [2]; 7 Hz, read-out: Nav1.7 IC50 INWARD CURRENT BLOCK (nM) (7 Hz, Manual Patchclamp)) | Phase 1 (paw flinches) (male Sprague-Dawley rat; Phase I (0-9 mins)) | Total Phase 2 (paw flinches) (male Sprague-Dawley rat; Phase II (10-60 mins)) | Phase 2a (paw flinches) (male Sprague-Dawley rat; Phase IIA (10-40 mins)) | Phase 2b (paw flinches) (male Sprague-Dawley rat; Phase IIB (41-60 mins))
CC(C)C[C@@H](N)C(=O)NC(C)COc1cc(C(F)(F)F)cc(C(F)(F)F)c1 (stereo partly drawn) [Compound 6, (2R)-2-amino-N-(1-(3,5-bis(trifluoromethyl)phenoxy)propan-2-yl)-4-methylpentanamide] | −0.25 | −4.80 | −6.20 | −32.70 | 1660 | 12700 | 2770 | – | – | – | – | – | – | –
CC(C)C[C@@H](N)C(=O)N[C@@H](C)COc1cc(C(F)(F)F)cc(C(F)(F)F)c1 [Compound 1, (R)-2-amino-N-((S)-1-(3,5-bis(trifluoromethyl)phenoxy)propan-2-yl)-4-methylpentanamide] | −0.30 | −8.60 | −6.80 | −20.90 | – | 15500 | 2580 | 568 | – | – | – | – | – | –
CN[C@H](CC(C)C)C(=O)NCCOc1cc(F)cc(C(F)(F)F)c1 [Compound 16, (R)-N-(2-(3-fluoro-5-(trifluoromethyl)phenoxy)ethyl)-4-methyl-2-(methylamino)pentanamide] | −0.11 | −2.80 | −2.60 | −14.70 | 9620 | – | 8120 | 3500 | 15000 | 23200 | – | – | – | –
CC(C)CC(N)C(=O)N[C@@H](C)COc1cc(C(F)(F)F)cc(C(F)(F)F)c1 (stereo partly drawn) [Compound 10, 2-amino-N-((S)-1-(3,5-bis(trifluoromethyl)phenoxy)propan-2-yl)-4-methylpentanamide] | −0.20 | −3.70 | −3.50 | −31.40 | 1890 | 11500 | 4120 | – | – | – | – | – | – | –
CC(C)C[C@@H](N)C(=O)NC(COc1cc(C(F)(F)F)cc(C(F)(F)F)c1)c1ccccc1 (stereo partly drawn) [Compound 38, (2R)-2-amino-N-(2-(3,5-bis(trifluoromethyl)phenoxy)-1-phenylethyl)-4-methylpentanamide] | −0.34 | −11.5 | −15.3 | −33.7 | – | 10300 | 5320 | 436 | – | – | – | – | – | –
N[C@@H](c1ccc(Cl)cc1)c1nc2cc(C(F)(F)F)cc(C(F)(F)F)c2[nH]1 [Compound 54, (S)-(4,6-bis(trifluoromethyl)-1H-benzo[d]imidazol-2-yl)(4-chlorophenyl)methanamine] | −0.26 | −10 | −8.6 | −27.4 | – | – | 2890 | 312 | – | – | – | – | – | –
NCC1(CC(=O)O)CCCCC1 [Gabapentin] | – | – | – | – | – | – | – | – | – | – | 320 ± 58 | 562 ± 213 | 486 ± 202 | 77 ± 47
N[C@@H](Cc1ccccc1)c1nc2cc(C(F)(F)F)cc(C(F)(F)F)c2[nH]1 [Compound 51, (S)-1-(4,6-bis(trifluoromethyl)-1H-benzo[d]imidazol-2-yl)-2-phenylethan-1-amine] | −0.35 | −9.5 | −11.5 | −20.8 | – | – | – | – | – | – | – | – | – | –
NCC(=O)NCc1cc(C(F)(F)F)cc(C(F)(F)F)c1 [Compound 78, 2-amino-N-(3,5-bis(trifluoromethyl)benzyl)acetamide] | −0.04 | −10.5 | −4.6 | −4.2 | – | – | – | – | – | – | – | – | – | –
